# Where two headings read alike, the source gives them in different places.
# What was measured:
# rhGM-CSF = rhGM-CSF (Homo sapiens, UniProt P04141); test: Competition for nucleotide photoprobe incorporation into rhGM-CSF; format: binding
# Mo7E = test: Proliferation of GM-CSF dependent Mo7E cells; format: cell-based, human; conditions: read-out: Half-maximal inhibition of Mo/7E growth (GM-CSF dependent)
# Excerpt: control. Similarly, cell proliferating of GM-CSF
# dependent (Mo7E) and autonomously proliferation (GM-CSF
# independent) human leukemia cells (HL-60) gave half-
# maximal inhibition of growth. Results are expressed as […]
# HL-60 [1] = test: HL-60 leukemia cell proliferation (MTT), single agents and combinations, CI-isobologram analysis; format: cell-based, human
# Method: (§1) Assays of proliferation consist of cell proliferation (3H-thymidine) assay as previously described or the MTT assay after 3-5 days of exposure to the agents. Cell proliferation is assayed using a modification of the original MTT calorimetric assay described by Mosmann (53). To better delineate the issues of proliferation (and inhibition thereof) versus differentiation, which is induced by certain of the agents being proposed for testing, an alternative method would utilize simple cell counting (Courter, Inc.) of aliquots at 3 and 5 days of continuous exposure with concomitant analysis of induced differentiation by cell morphology (NBT-positive) conducted. The percentage of differentiated cells in liquid culture determined by the NBT reduction test (as described, (54) allows for an estimate of the total number of cells which are still blast cells and therefore considered capable of continued leukemogenic growth. The most promising combinations are used to examine de novo acute myeloid leukemia patient samples in like fashion.
# The antigrowth factor activity of suramin was tested alone and in combination with all-trans retinoic acid (ATRA) against the human leukemic line HL-60 or its ATRA resistant subclone, HL-60R, to assess if an agent with the ability to interrupt putative autocrine driven leukemic cell growth could reestablish sensitivity to ATRA. […] Synergy or antagonism between combinations was then assessed using a combination-index CI-isobolo gram method.
# Cell lines chosen for this study include the ATRA sensitive human acute leukemia HL-60 and the ATRA resistant subclone, HL-60R. While originally described as an acute promyelocytic cell line, more recent work categorizes this line as an acute myelogenous leukemia. The sensitivity of these cell lines to ATRA and suramin alone as single agents has been assessed. […] The assays of proliferation consist of cell proliferation after 3-5 days of exposure to the agents. Cell proliferation is assayed using a modification of the original MTT calorimetric assay described by Mossman, et al. In similar fashion, a dose response curve to cytosine arabinoside has been generated. Using the IC50 values for each agent alone allows selection of reasonable drug combinations. The data software program, "Dose effect analysis with microcomputers" (BioSoft, Inc.) developed by Dr. Chou, et al. is utilized. This computer analysis program allows the assessment of drug combinations for synergistic, additive, or antagonistic interactions.
# HL-60R = HL-60R (ATRA resistant subclone) proliferation (MTT), single agents and combinations; format: cell-based, human
# Method: as §1, with “fashion. […]” for “fashion.”
# Cell lines chosen for this study include the ATRA sensitive human acute leukemia HL-60 and the ATRA resistant subclone, HL-60R. […] The sensitivity of these cell lines to ATRA and suramin alone as single agents has been assessed. […]
# NB4 = test: Activity against NB4 leukemia cells; format: cell-based, human
# Method: While originally described as an acute promyelocytic cell line, more recent work categorizes this line as an acute myelogenous leukemia.
# as §1
# HL-60 [2] = conditions: HL-60 in vitro, reference 48; cited from earlier work
# follicular lymphoma = conditions: evaluable follicular lymphoma patients; cited from earlier work
# [3] = test system: acute promyelocytic leukemia (APL); conditions: cited from earlier work
# [4] = Homo sapiens, HL-60, autonomously proliferating cells, read-out: Half-maximal inhibition of HL-60 growth (GM-CSF independent)
# [5] = photoprobe incorporation into rhGM-CSF compared to control, read-out: Half-maximal inhibition of nucleotide binding
# [6] = Homo sapiens, HL-60, 120 h, read-out: Fractional Inhibition
# Chain of rhGM-CSF (P04141 18-144): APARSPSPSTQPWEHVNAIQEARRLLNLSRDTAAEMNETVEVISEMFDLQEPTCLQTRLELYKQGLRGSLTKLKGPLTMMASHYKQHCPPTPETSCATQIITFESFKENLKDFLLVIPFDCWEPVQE
compound,measurement,setting,value
Cc1ccc(C(=O)Nc2ccc(S(=O)(=O)O)c3cc(S(=O)(=O)O)cc(S(=O)(=O)O)c23)cc1NC(=O)c1cccc(NC(=O)Nc2cccc(C(=O)Nc3cc(C(=O)Nc4ccc(S(=O)(=O)O)c5cc(S(=O)(=O)O)cc(S(=O)(=O)O)c45)ccc3C)c2)c1 [suramin],IC50,rhGM-CSF,2500 nM
same,IC50,"Mo7E; Homo sapiens, Mo7e",68 µM
same,m (slope of the median-effect plot),"HL-60 [1]; HL60, 5 days exposure",1.725
same,"Inhibition of growth, in words",HL-60 [1]; HL-60,active
same,IC50,"HL-60 [1]; Homo sapiens, HL-60, 120 h, HL60, 5 days exposure, doses printed in μM, read-out: Dm (antilog of x-intercept of the median-effect plot, the potency (IC50))",38.7 µM
same,inhibition at 3.5 µM,"HL-60 [1]; Homo sapiens, HL-60, 120 h, suramin 3.5 μM, HL60, 5 days exposure, read-out: Fractional Inhibition",2%
same,inhibition at 7 µM,"HL-60 [1]; Homo sapiens, HL-60, 120 h, suramin 7.0 μM, HL60, 5 days exposure, read-out: Fractional Inhibition",4.7%
same,inhibition at 14 µM,"HL-60 [1]; Homo sapiens, HL-60, 120 h, suramin 14.0 μM, HL60, 5 days exposure, read-out: Fractional Inhibition",9.3%
same,inhibition at 28 µM,"HL-60 [1]; Homo sapiens, HL-60, 120 h, suramin 28.0 μM, HL60, 5 days exposure, read-out: Fractional Inhibition",41.9%
same,inhibition at 56 µM,"HL-60 [1]; Homo sapiens, HL-60, 120 h, suramin 56.0 μM, HL60, 5 days exposure, read-out: Fractional Inhibition",67.8%
same,IC50,HL-60 [1]; [4],38 µM
same,"Inhibition of growth, in words",HL-60R; HL-60R,active
same,"Activity, in words",NB4,active
same,"Suppression of proliferation, in words",HL-60 [2],strongly suppress
same,Patients achieving partial remission,follicular lymphoma,five of nine
O=C(Nc1cc(C(=O)Nc2ccc(S(=O)(=O)O)cc2)cc(C(=O)Nc2ccc(S(=O)(=O)O)cc2)c1)Nc1cc(C(=O)Nc2ccc(S(=O)(=O)O)cc2)cc(C(=O)Nc2ccc(S(=O)(=O)O)cc2)c1 [NF110],IC50,rhGM-CSF; [5],1500 nM
same,IC50,Mo7E,52 µM
same,Enhanced activity,"HL-60 [1]; against HL-60, relative to suramin",5-10 fold
same,IC50,"HL-60 [1]; autonomously proliferating cells, read-out: Half-maximal inhibition of HL-60 growth (GM-CSF independent)",6 µM
same,Enhanced activity,"HL-60R; against HL-60R, relative to suramin",5-10 fold
O=C(Nc1cccc(C(=O)Nc2ccc(S(=O)(=O)O)c3cc(S(=O)(=O)O)cc(S(=O)(=O)O)c23)c1)Nc1cccc(C(=O)Nc2ccc(S(=O)(=O)O)c3cc(S(=O)(=O)O)cc(S(=O)(=O)O)c23)c1 [NF023],IC50,rhGM-CSF; [5],5000 nM
same,IC50,"Mo7E; Homo sapiens, Mo7e",102 µM
same,IC50,HL-60 [1]; [4],175 µM
"CC1=C(/C=C/C(C)=C/C=C/C(C)=C/C(=O)O)C(C)(C)CCC1 [ATRA, all-trans retinoic acid]",m (slope of the median-effect plot),"HL-60 [1]; HL60, 5 days exposure",.2729
same,IC50,"HL-60 [1]; Homo sapiens, HL-60, 120 h, read-out: Dm (antilog of x-intercept of the median-effect plot, the potency (IC50))",0.00022 µM
same,inhibition at 0.001 µM,HL-60 [1]; [6],56.1%
same,inhibition at 0.01 µM,HL-60 [1]; [6],77.7%
same,inhibition at 0.02 µM,HL-60 [1]; [6],79%
same,inhibition at 0.04 µM,HL-60 [1]; [6],82.3%
same,inhibition at 0.08 µM,HL-60 [1]; [6],82.6%
same,inhibition at 0.16 µM,HL-60 [1]; [6],83.5%
same,Patients resistant to ATRA at diagnosis or relapsing,[3]; APL,30-40%
same,Complete remission rate,[3]; ATRA as a single agent in APL,≥ 70%
same,Patients with long term remissions,[3]; ATRA treatment followed by chemotherapy,60%
same,Patients with ATRA syndrome,"[3]; subset of APL patients, fever, respiratory distress, chest x-ray abnormalities, weight gain",5-20%
